This is an account of results in patent publication US5593970A, “Heterocyclic anthracycline analogs” (priority 1994, dated 1997).

One experiment has as its system T47D. The experiment is described as follows: Microculture tetrazolium assay. Format: cell-based. As to conditions: read-out: IC50.
The subject of experiment [1] is HT29. The experiment is described as follows: Soft agar colony formation disk diffusion assay. It counts as cell-based, human. An excerpt:
A more elaborate version of this fundamental assay, the soft agar colony formation disk diffusion assay was used. […] The effect of the test drug against tumoral cells could be measured by its inhibitory capacity against colony formation after the delivery of the compound, in different concentrations on an filter disk(4). A modified technique of this assay was used in order to investigate the antiproliferative activity of candidate compounds. Tumoral cells from solid tumors and ascitic lines were plated separately in a two layer agar matrix. Cell lines to be tested were suspended in an upper layer of 0.4% Noble agar (Difco#00142-01) in RPMI-1066 (Gibco#3201875) at a yield varying between 10^4 to 2×10^5 cells per 60 mm Petri dish. Plating efficiency was determined for each line in order to achieve an optimal number of colonies per dish. […] The bottom layer consisted of 0.8% Noble agar, 0.8% Tryptic Soy Broth (difco#0037001)in CMRL-1066/Fischer's. The bottom layers were used within 2 and 9 days of preparation. Plated dishes (bottom layer of agar, upper layer of cells and administered drug were incubated in humidified atmosphere at 37° C., 5% CO2 for 10-20 days depending upon the time necessary to observe adequate colonies (defined as a cell aggregate of more than 50 cells) both control and drug inhibited. Drugs were administered on a paper filter disk (Whatman No. 1) of 6.5 mm diameter placed on the upper layer at 1/3 distance from the edge of the dish. The anti-clonogenic activity of the compounds was measured as the zone of inhibition from the disk edge to the most proximal colonies. This zone of inhibition was checked on an inverted microscope (40×) and was measured with a micrometer mounted in the eyepiece. The ocular micrometer was calibrated with a stage micrometer set for a particular combination of ocular and objective lenses. […] We made a modification of the initial technique by not plating a solid tumor and a leukemia simultaneously in the same Petri dish. […] HUMAN TUMORS. […] LS180 (13) and BE1(14) were obtained from the Oncology Dept. of the Montreal General Hospital. […] Cell lines were routinely passaged twice a week by trypsinization and maintained in 25, or 75-sq. cm Falcon Plastic flasks at 37° C., 5% CO2 in humidified atmosphere. Both compounds were dissolved in DMSO (1 mg/100 ul) and brought to final volume (250 ul) with Millipore deionized sterile water. Further dilutions were made with […] volume of 25 ul of freshly prepared solution was placed on the filter disk and allowed to dry.
On the technique in general: A growth-free zone around the sample is the usual read-out of agar diffusion tests.

Experiment [2] deals with HT29. The experiment is described as follows: Microculture tetrazolium assay. It counts as cell-based. To be noted: read-out: IC50.
Another experiment has as its system SKOV3. The experiment is described as follows: Microculture tetrazolium assay. Format: cell-based. As to conditions: read-out: IC50.
A further experiment has as its system SKVLB. As to the kind of experiment: Microculture tetrazolium assay. Format: cell-based. To be noted: for VLB/OV3: IC50 ratio SKVLB/SKOV3; for pIC50: SKVLB, read-out: IC50.
For another experiment, the system named is MCF7/ADR. The experiment is described as follows: Soft agar colony formation disk diffusion assay. It counts as cell-based, human. A digest of the protocol:
(§1)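 Cells in 0.4% Noble agar top layer over 0.8% agar base; compound in DMSO/water applied on 6.5 mm filter disk. Incubated 37 °C, 5% CO2 for 10–20 days. Activity measured as inhibition zone from disk edge to nearest colonies (>50 cells), by ocular micrometer.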

In another experiment the test system is LS180. As to the kind of experiment: Soft agar colony formation disk diffusion assay. It counts as cell-based, human. In outline: as §1
The subject of another experiment is MCF7. As to the kind of experiment: Soft agar colony formation disk diffusion assay. Format: cell-based, human. In outline: as §1

pIC50: −log10 of the molar value. Where two headings read alike, the source gives them in different places.

As to “3-(2-acetoxy-1-propeneketal)aceto-6-acetoxy-1-hydroxy-1,2,3,4-tetrahydro-(2-oxygen)naphtacene-5,12-dione and 3-(2-acetoxy-1-propeneketal)-aceto-11-acetoxy-1-hydroxy-1,2,3,4-tetrahydro-(2-oxygen)naphtacene-5,12-dione [BCH-710]”, the pIC50 (commonly −log10 of the IC50, conventionally taken in molar units) in the experiment on T47D was 5.45; with HT29 [2] (HT29) it was 5.75; with SKOV3 (SKOV3), 5.40; in the experiment on SKVLB, 5.28. For the same compound, the zone of inhibition is on record as 30.0 ± 8.4 Zone Units in the experiment on HT29 [1] (10 μg/DISK); 69.0 ± 30.0 Zone Units in the experiment on HT29 [1] (100 μg/DISK); 0 Zone Units in the experiment with MCF7/ADR (10 μg/DISK); 106.0 ± 21.9 Zone Units in the experiment on MCF7/ADR (100 μg/DISK); 48.5 ± 26.1 Zone Units in the experiment with LS180 (10 μg/DISK); 110.0 ± 50.2 Zone Units in the experiment on LS180 (100 μg/DISK). Also, the zone of inhibition in the experiment on MCF7 (10 μg/DISK) came out at 0 Zone Units; in the experiment on MCF7 (100 μg/DISK), 24.0 ± 8.4 Zone Units. Also, in the experiment on SKVLB, the VLB/OV3 is recorded as 1.30.
On to “3-(2-hydroxy)aceto-6-hydroxy-1,2,3,4-tetrahydro-(2-oxygen)naphthacene-5,12-dione and 3-(2-hydroxy)aceto-11-hydroxy-1,2,3,4-tetrahydro-(2-oxygen)naphthacene-5,12-dione [BCH-694]”, for which the negative-log IC50 (pIC50) was 4.95 in the experiment with T47D, 4.87 with HT29 [2] (HT29), 5.09 with SKOV3 (SKOV3) and 4.75 in the experiment with SKVLB. Further, the zone of inhibition in the experiment with HT29 [1] (10 μg/DISK) is 30.5 ± 8.6 Zone Units; in the experiment with HT29 [1] (100 μg/DISK), 143.3 ± 30.1 Zone Units; with MCF7/ADR (10 μg/DISK), 0 Zone Units; in the experiment with MCF7/ADR (100 μg/DISK), 161.5 ± 13.4 Zone Units; in the experiment with LS180 (10 μg/DISK) it was 48.8 ± 17.2 Zone Units; with LS180 (100 μg/DISK) it was 153.2 ± 1.0 Zone Units. Besides, the values for the zone of inhibition with MCF7 (10 μg/DISK) and with MCF7 (100 μg/DISK) were 61.0 ± 0.0 Zone Units and 149.4 ± 12.9 Zone Units, respectively. In the experiment on SKVLB, the VLB/OV3 was 2.18.
On to “3-Carbomethoxy-1,11-dihydroxy-1,2,3,4-tetrahydro-(2-oxygen)naphthacene-5,12-dione 3-Carbomethoxy-1,6-dihydroxy-1,2,3,4-tetrahydro-(2-oxygen)naphthacene-5,12-dione [BCH-711]”, for which the negative-log IC50 (pIC50) with T47D was 4.91; in the experiment with HT29 [2] (HT29) it was 5.25; with SKOV3 (SKOV3) it was 4.95; in the experiment on SKVLB, 4.87. Moreover, the zone of inhibition turned out to be 27.0 ± 4.2 Zone Units in the experiment on HT29 [1] (10 μg/DISK); 91.5 ± 43.1 Zone Units in the experiment on HT29 [1] (100 μg/DISK); 24.4 ± 8.5 Zone Units in the experiment on MCF7/ADR (10 μg/DISK); 222.4 ± 159.2 Zone Units with MCF7/ADR (100 μg/DISK); 18.0 ± 16.9 Zone Units in the experiment on LS180 (10 μg/DISK); 182.5 ± 43.1 Zone Units in the experiment with LS180 (100 μg/DISK). Moreover, the results for the zone of inhibition in the experiment with MCF7 (10 μg/DISK) and in the experiment with MCF7 (100 μg/DISK) were 0 Zone Units and 244.0 ± 17.2 Zone Units, respectively. Besides, in the experiment on SKVLB, the VLB/OV3 was 1.22.
“3-carbomethoxy-6-hydroxy-1,2,3,4-tetrahydro-(2-sulfur)naphthacene-5,12-dione and 3-carbomethoxy-11-hydroxy-1,2,3,4-tetrahydro(2-sulfur)naphthacene-5,12-dione [BCH-693]”: the pIC50 in the experiment on T47D is 4.79; in the experiment with HT29 [2] (HT29), 4.72; with SKOV3 (SKOV3) it was 4.38; in the experiment with SKVLB it was 4.35. Further, the zone of inhibition is on record as 0 Zone Units in the experiment with HT29 [1] (10 μg/DISK); 39.6 ± 4.3 Zone Units in the experiment with HT29 [1] (100 μg/DISK); 24.4 ± 17.2 Zone Units in the experiment with MCF7/ADR (10 μg/DISK); 67.1 ± 25.8 Zone Units in the experiment on MCF7/ADR (100 μg/DISK); 0 Zone Units in the experiment on LS180 (10 μg/DISK); 39.6 ± 4.3 Zone Units in the experiment with LS180 (100 μg/DISK). In addition, the zone of inhibition in the experiment on MCF7 (10 μg/DISK) was 0 Zone Units; in the experiment on MCF7 (100 μg/DISK) it was 67.1 ± 34.5 Zone Units. Also, the VLB/OV3 with SKVLB turned out to be 1.06.
For the compound `CCOC(=O)C1CC2=C(CO1)C(=O)c1cc3ccccc3c(O)c1C2=O` (stereo not drawn) [BCH-653, Ethyl(6 and 11 hydroxy-5,12-dioxo-3,4,5,12-tetrahydro-anthraceno[2,3-c]pyran-3-yl)]formate], the zone of inhibition in the experiment on HT29 [1] (100 μg/DISK) is recorded as 42.7 ± 8.6 Zone Units; in the experiment with MCF7/ADR (100 μg/DISK) it was 91.5 ± 43.1 Zone Units; in the experiment on LS180 (100 μg/DISK), 35.5 ± 0.7 Zone Units; in the experiment with MCF7 (100 μg/DISK), 106.1 ± 21.5 Zone Units.
For `CCOC(=O)[C@@H]1CC2=C(C(=O)c3cc4ccccc4c(O)c3C2=O)[C@@H](O[C@H]2C[C@H](NC(=O)C(F)(F)F)[C@H](O)[C@H](C)O2)O1` [BCH-681, (1'S,1R,3S)Ethyl[6-hydroxy-5,12-dioxo-1-(3'-trifuloroacetamido-1-daunosaminyl)-3,4,5,12-tetrahydroanthraceno(2,3-C)pyran-3-yl]formate], the pIC50 in the experiment with T47D (Homo sapiens) is 5.09; with HT29 [2] (Homo sapiens, HT-29, HT29), 5.76; in the experiment on SKOV3 (Homo sapiens, SK-OV-3, SKOV3), 5.22; in the experiment with SKVLB, 5.16. The zone of inhibition stood at 106.7 ± 21.5 Zone Units in the experiment on HT29 [1] (10 μg/DISK), 213.5 ± 43.1 Zone Units in the experiment on HT29 [1] (100 μg/DISK), 82.7 ± 30.1 Zone Units in the experiment on MCF7/ADR (10 μg/DISK) and 326.3 ± 56.0 Zone Units in the experiment with MCF7/ADR (100 μg/DISK). Further, the VLB/OV3 with SKVLB turned out to be 1.16.
In the case of `CCOC(=O)[C@H]1CC2=C(C(=O)c3cc4ccccc4c(O)c3C2=O)[C@H](O[C@H]2C[C@H](NC(=O)C(F)(F)F)[C@H](O)[C@H](C)O2)O1` [BCH-684, (1'S,1S,3R)Ethyl[6-hydroxy-5,12-dioxo-1-(3'-trifluoroacetamido-1-daunosaminyl)-3,4,5,12-tetrahydroanthraceno(2,3-C)pyran-3-yl]formate], the zone of inhibition is 137.2 ± 21.5 Zone Units in the experiment with HT29 [1] (10 μg/DISK); 170.8 ± 86.2 Zone Units in the experiment on HT29 [1] (100 μg/DISK); 161.6 ± 30.1 Zone Units in the experiment on MCF7/ADR (10 μg/DISK); 437.1 ± 30.1 Zone Units in the experiment with MCF7/ADR (100 μg/DISK); 115.9 ± 8.6 Zone Units in the experiment on MCF7 (10 μg/DISK); 225.7 ± 25.8 Zone Units with MCF7 (100 μg/DISK). Further, the pIC50 in the experiment with SKOV3 (Homo sapiens, SK-OV-3, SKOV3) is 5.38; with SKVLB it was 5.20. In addition, the VLB/OV3 in the experiment on SKVLB was determined as 1.52. Further, in the experiment on MCF7/ADR, the “cross resistance with adriamycin, MCF7/ADR vs MCF7” value (“cross resistance … MCF7/ADR vs MCF7” below) was “more active in the adriamycin resistant cell line”.
`C=CC1CC2=C(C(=O)c3cc4ccccc4c(O)c3C2=O)C(OC)O1` (stereo not drawn) [BCH-712, 6-hydroxy-1-methoxy-1,2,3,4-tetrahydro-3-vinyl-(2-oxygen) naphthacene-5,12-dione]: the zone of inhibition came to 0 Zone Units with HT29 [1] (10 μg/DISK); 55.0 ± 8.4 Zone Units with HT29 [1] (100 μg/DISK); 24.0 ± 8.4 Zone Units in the experiment with MCF7/ADR (10 μg/DISK); 79.0 ± 8.4 Zone Units with MCF7/ADR (100 μg/DISK); 9.0 ± 4.2 Zone Units in the experiment with LS180 (10 μg/DISK); 158.0 ± 34.6 Zone Units in the experiment with LS180 (100 μg/DISK). Further, the results for the zone of inhibition with MCF7 (10 μg/DISK) and in the experiment on MCF7 (100 μg/DISK) were 0 Zone Units and 54.5 ± 9.1 Zone Units, respectively. For the same compound, the “cross resistance … MCF7/ADR vs MCF7” value in the experiment with MCF7/ADR is given as “more active in the adriamycin resistant cell line”.
For the compound “Methyl(11-hydroxy-5,12-dioxo-3,4,5,12-tetrahydroanthraceno[2,3-c]pyran-3-yl)ketone and Methyl(5-hydroxy-5,12-dioxo-3,4,5,12-tetrahydroanthraceno[2,3-c]pyran-3-yl)ketone [BCH-687]”, the zone of inhibition in the experiment with HT29 [1] (10 μg/DISK) amounted to 61.0 ± 12.2 Zone Units; with HT29 [1] (100 μg/DISK) it was 150.4 ± 25.3 Zone Units; with MCF7/ADR (10 μg/DISK), 61.0 ± 6.1 Zone Units; in the experiment on MCF7/ADR (100 μg/DISK), 140.0 ± 32.3 Zone Units; with LS180 (10 μg/DISK), 152.5 ± 30.5 Zone Units; in the experiment on LS180 (100 μg/DISK), 233.8 ± 17.6 Zone Units. For the same compound, the values for the zone of inhibition in the experiment on MCF7 (10 μg/DISK) and with MCF7 (100 μg/DISK) were 71.1 ± 9.3 Zone Units and 152.5 ± 50.0 Zone Units, respectively. In addition, in the experiment on MCF7/ADR, the “cross resistance … MCF7/ADR vs MCF7” value was “lack of cross resistance with adriamycin”.
